Test results taken from patent US7563903B2, “Acylaminothiazole derivatives, their preparation and their therapeutic use” (Sanofi-Aventis, priority 2003, dated 2009).
Where “and” joins values, the source holds several entries; their conditions need not be identical. Equal values may be shown once.

CCC[C@H](NC(=O)[C@@H](O)C(C)(C)C)C(=O)Nc1ncc(-c2ccccc2COC2CCCCC2)s1 [compound 57, (2S)—N-(5-{2-[(cyclohexyloxy)methyl]phenyl}-1,3-thiazol-2-yl)-2-{[(2S)-2-hydroxy-3,3-dimethylbutanoyl]amino}pentanamide]
melting point: 88 °C

CCC[C@H](NC(=O)[C@@H](O)C(C)(C)C)C(=O)Nc1ncc(-c2ccccc2COc2cc(C)ccc2Cl)s1 [compound 67, (2S)—N-(5-{2-[(2-chloro-5-methylphenoxy)methyl]phenyl}-1,3-thiazol-2-yl)-2-{[(2S)-2-hydroxy-3,3-dimethylbutanoyl]amino}pentanamide]
melting point: 82 °C

CCC[C@H](NC(=O)[C@@H](O)C(C)C)C(=O)Nc1ncc(-c2ccc(C)cc2COc2ccccc2)s1 [compound 65, (2S)-2-{[(2S)-2-hydroxy-3-methylbutanoyl]amino}-N-{5-[4-methyl-2-(phenoxymethyl)phenyl]-1,3-thiazol-2-yl}pentanamide]
melting point: 135.5 °C

CCC[C@H](NC(=O)[C@@H](O)C(C)(C)C)C(=O)Nc1ncc(-c2cc(C)ccc2COc2ccccc2)s1 [compound 64, (2S)-2-{[(2S)-2-hydroxy-3,3-dimethylbutanoyl]amino}-N-{5-[5-methyl-2-(phenoxymethyl)phenyl]-1,3-thiazol-2-yl}pentanamide]
melting point: 170 °C

CCC[C@H](NC(=O)[C@@H](O)C(C)C)C(=O)Nc1ncc(-c2ccccc2COc2ccccc2)s1 [compound 37, (2S)-2-{[(2S)-2-hydroxy-3-methylbutanoyl]amino}-N-{5-[2-(phenoxymethyl)phenyl]-1,3-thiazol-2-yl}pentanamide]
melting point: 141 °C

CCC[C@H](NC(=O)[C@@H](O)C(C)(C)C)C(=O)Nc1ncc(-c2ccc(Cl)cc2COc2ccccc2)s1 [compound 47, (2S)—N-{5-[4-chloro-2-(phenoxymethyl)phenyl]-1,3-thiazol-2-yl}-2-{[(2S)-2-hydroxy-3,3-dimethylbutanoyl]amino}pentanamide]
melting point: 93.5 °C

CCC[C@H](NC(=O)[C@@H](O)C(C)C)C(=O)Nc1ncc(-c2cc(C)ccc2COc2ccccc2)s1 [compound 60, (2S)-2-{[(2S)-2-hydroxy-3-methylbutanoyl]amino}-N-{5-[5-methyl-2-(phenoxymethyl)phenyl]-1,3-thiazol-2-yl}pentanamide]
melting point: 125.5 °C

CCC[C@H](NC(=O)[C@@H](O)C(C)(C)C)C(=O)Nc1ncc(-c2ccccc2COc2c(OC)cccc2OC)s1 [compound 31, (2S)—N-(5-{2-[(2,6-dimethoxyphenoxy)methyl]phenyl}-1,3-thiazol-2-yl)-2-{[(2S)-2-hydroxy-3,3-dimethylbutanoyl]amino}pentanamide]
melting point: 69.5 °C

CCC[C@H](NC(=O)CC(C)(C)C)C(=O)Nc1ncc(-c2ccccc2COC(C)C)s1 [compound 13, (2S)-2-[(3,3-dimethylbutanoyl)amino]-N-{5-[2-(isopropoxymethyl)phenyl]-1,3-thiazol-2-yl}pentanamide]
melting point: 77 °C

CCC[C@H](NC(=O)[C@@H](O)C(C)(C)C)C(=O)Nc1ncc(-c2ccccc2COc2cccc(C)c2C)s1 [compound 26, (2S)—N-(5-{2-[(2,3-dimethylphenoxy)methyl]phenyl}-1,3-thiazol-2-yl)-2-{[(2S)-2-hydroxy-3,3-dimethylbutanoyl]amino}pentanamide]
melting point: 88 °C

CCC[C@H](NC(=O)[C@@H](O)C(C)(C)C)C(=O)Nc1ncc(-c2ccccc2COc2cc(OC)cc(OC)c2)s1 [compound 25, (2S)—N-(5-{2-[(3,5-dimethoxyphenoxy)methyl]-phenyl}-1,3-thiazol-2-yl)-2-{[(2S)-2-hydroxy-3,3-dimethylbutanoyl]amino}pentanamide]
melting point: 66.5 °C

CCC[C@@H](NC(=O)[C@@H](O)C(C)(C)C)C(=O)Nc1ncc(-c2ccccc2COc2ccccc2)s1 [compound 35, (2R)-2-{[(2S)-2-hydroxy-3,3-dimethylbutanoyl]amino}-N-{5-[2-(phenoxymethyl)phenyl]-1,3-thiazol-2-yl}pentanamide]
melting point: 78.5 °C

CCC[C@H](NC(=O)[C@@H](O)C(C)(C)C)C(=O)Nc1ncc(-c2ccccc2COc2cccc(Cl)c2)s1 [compound 29, (2S)—N-(5-{2-[(3-chlorophenoxy)methyl]phenyl}-1,3-thiazol-2-yl)-2-{[(2S)-2-hydroxy-3,3-dimethylbutanoyl]amino}pentanamide]
melting point: 169 °C

CCC[C@H](NC(=O)C(O)CC(C)C)C(=O)Nc1ncc(-c2ccccc2COC2CCCCC2)s1 (stereo partly drawn) [Compound No. 4, N-((1S)-1-{[(5-{2-[(cyclohexyloxy)methyl]phenyl}-1,3-thiazol-2-yl)amino]carbonyl}butyl)-2-hydroxy-4-methylpentanamide]
melting point: 85 °C

CCC[C@H](NC(=O)[C@@H](O)C(C)(C)C)C(=O)Nc1ncc(-c2ccccc2COc2ccccc2)s1 [Compound No. 9, (2S)-2-{[(2S)-2-hydroxy-3,3-dimethylbutanoyl]amino}-N-{5-[2-(phenoxymethyl)phenyl]-1,3-thiazol-2-yl}pentanamide]
melting point: 84 °C

CCC[C@H](NC(=O)[C@@H](O)C(C)C)C(=O)Nc1ncc(-c2ccc(OCC)cc2COc2ccccc2)s1 [compound 53, (2S)—N-{5-[4-ethoxy-2-(phenoxymethyl)phenyl]-1,3-thiazol-2-yl}-2-{[(2S)-2-hydroxy-3-methylbutanoyl]amino}pentanamide]
melting point: 107.8 °C

CCC[C@H](NC(=O)[C@@H](O)C(C)(C)C)C(=O)Nc1ncc(-c2ccccc2COc2c(F)cccc2F)s1 [compound 46, (2S)—N-(5-{2-[(2,6-difluorophenoxy)methyl]phenyl}-1,3-thiazol-2-yl)-2-{[(2S)-2-hydroxy-3,3-dimethylbutanoyl]amino}pentanamide]
melting point: 63.5 °C

CCC[C@H](NC(=O)[C@@H](O)C(C)(C)C)C(=O)Nc1ncc(-c2ccccc2COc2cccc(F)c2)s1 [compound 62, (2S)—N-(5-{2-[(3-fluorophenoxy)methyl]phenyl}-1,3-thiazol-2-yl)-2-{[(2S)-2-hydroxy-3,3-dimethylbutanoyl]amino}pentanamide]
melting point: 160.2 °C

CCC[C@H](NC(=O)[C@@H](O)C(C)(C)C)C(=O)Nc1ncc(-c2ccc(OCC)cc2COc2ccccc2)s1 [compound 52, (2S)—N-{5-[4-ethoxy-2-(phenoxymethyl)phenyl]-1,3-thiazol-2-yl}-2-{[(2S)-2-hydroxy-3,3-dimethylbutanoyl]amino}pentanamide]
melting point: 81 °C

CCC[C@H](NC(=O)[C@@H](O)C(C)(C)C)C(=O)Nc1ncc(-c2ccccc2COc2c(C)cccc2C)s1 [compound 28, (2S)—N-(5-{2-[(2,6-dimethylphenoxy)methyl]phenyl}-1,3-thiazol-2-yl)-2-{[(2S)-2-hydroxy-3,3-dimethylbutanoyl]amino}pentanamide]
melting point: 87 °C

CCC[C@H](NC(=O)[C@@H](O)C(C)(C)C)C(=O)Nc1ncc(-c2ccc(OC)cc2COc2ccccc2)s1 [compound 18, (2S)-2-{[(2S)-2-hydroxy-3,3-dimethylbutanoyl]amino}-N-{5-[4-methoxy-2-(phenoxymethyl)phenyl]-1,3-thiazol-2-yl}pentanamide]
melting point: 117 °C

CCC[C@H](NC(=O)[C@@H](O)C(C)(C)C)C(=O)Nc1ncc(-c2ccc(OC)cc2COC(C)C)s1 [compound 44, (2S)-2-{[(2S)-2-hydroxy-3,3-dimethylbutanoyl]amino}-N-{5-[2-(isopropoxymethyl)-4-methoxyphenyl]-1,3-thiazol-2-yl}pentanamide]
melting point: 79 °C

CCC[C@H](NC(=O)[C@H](O)C(CC)CC)C(=O)Nc1ncc(-c2ccccc2COc2ccccc2)s1 (racemic) [Compound No. 42, (2R)-3-ethyl-2-hydroxy-N-{(1S)-1-[({5-[2-(phenoxymethyl)phenyl]-1,3-thiazol-2-yl}amino)carbonyl]butyl}pentanamide]
melting point: 67.4 °C and 67.5 °C

CCC[C@H](NC(=O)[C@@H](O)C(C)(C)C)C(=O)Nc1ncc(-c2ccccc2COC(C)C)s1 [compound 11, (2S)-2-{[(2S)-2-hydroxy-3,3-dimethylbutanoyl]amino}-N-{5-[2-(isopropoxymethyl)phenyl]-1,3-thiazol-2-yl}pentanamide]
melting point: 63 °C

C[C@H](NC(=O)[C@@H](O)C(C)(C)C)C(=O)Nc1ncc(-c2ccccc2COc2ccccc2)s1 [compound 58, (2S)-2-hydroxy-3,3-dimethyl-N-[(1S)-1-methyl-2-oxo-2-({5-[2-(phenoxymethyl)phenyl]-1,3-thiazol-2-yl}amino)ethyl]butanamide]
melting point: 118.6 °C

CCC[C@H](NC(=O)[C@@H](O)C(C)(C)C)C(=O)Nc1ncc(-c2ccccc2COc2cccc(C#N)c2)s1 [compound 61, (2S)—N-(5-{2-[(3-cyanophenoxy)methyl]phenyl}-1,3-thiazol-2-yl)-2-{[(2S)-2-hydroxy-3,3-dimethylbutanoyl]amino}pentanamide]
melting point: 162.6 °C

CCC[C@H](NC(=O)C(O)C(C)(C)C)C(=O)Nc1ncc(-c2ccccc2COc2ccccc2OCC)s1 (stereo partly drawn) [compound 39, (2S)—N-(5-{2-[(2-ethoxyphenoxy)methyl]phenyl}-1,3-thiazol-2-yl)-2-[(2-hydroxy-3,3-dimethylbutanoyl)amino]pentanamide]
melting point: 88 °C
